# In patent publication US20240350436A1, “METHODS FOR HAIR GROWTH” (THE REGENTS OF THE UNIVERSITY OF MICHIGAN, priority 2021, published 2024):
# Assays:
# hair follicles = conditions: skin samples of treated mice, H&E (FIG. 2A)
# Description: (§1) Skin samples were taken from treated and vehicle control mice and stained to evaluate skin histomorphology. Hair follicle cycle was evaluated by morphology and divided into 3 phases: growth phase (anagen); regression phase (catagen); and telogen. […] Proliferative cells in the hair follicle (follicular) and interfollicular epidermis (Interfollicular) were quantified for the identified timepoints.
# [1] = tested on: proliferative cells in the hair follicle and interfollicular epidermis; conditions: after 10 days, BrdU positive cells per field
# Description: BrdU labeling and cell proliferation BrdU (10 mg/ml) was injected in mice via IP two hours previous to the euthanasia. Tissue was collected and processed. The tissue was placed on slides and deparaffinized in xylene substitute and hydrated in descending grades of ethanol. Antigen retrieval was performed by HCL at 37° C. for 1 hour. Anti-BrdU (1:200, Novus Biologicals, Centennial, CO) was incubated overnight at 4° C., followed by secondary antibody conjugated with Alexa 488 incubation and counterstaining with Hoechst 33342. All slides were mounted using Fluoroshield. For quantification, ten fields were captured at a magnification of x400. The images were analyzed using ImageJ (NIH, Bethesda, MD, USA), and the proliferation was expressed as the number of positive cells per field.
# as §1
# [2] = tested on: Human epidermal keratinocytes (HEK); conditions: HEK monolayer, 48 hrs treatment (FIG. 3D)
# Description: (§2) Flow cytometry analysis Isolation of skin single-cell suspension. Briefly, the subcutis underlying the dorsal skin was removed, and the epithelial cell layer was trypsinized for 2 hours at 37° C. Epithelial cell suspensions were filtered through 70 μm mesh filters (BD Bioscience, San Jose, CA, USA) to achieve a single cell suspension. Cells were maintained on ice. Immunofluorescence staining for CD34-FITC and CD49f-P.E./Cye5 primary antibodies (BD Pharmingen, San Jose, CA, USA) was performed to detected hair follicle stem cells. Antibodies were incubated with the cells for 30 minutes at 4° C. after cells were incubated with FcR blocking reagent (Miltenyi Biotec, Bergisch Gladbach, Germany). Human epidermal keratinocytes (HEK) (Cell Applications, Inc., San Diego, CA) were cultured in Epi-Vita Growth Medium (Cell Applications, Inc., San Diego, CA) and maintained at 37° C. with 5% of CO2 in a humidified incubator. Human epidermal keratinocytes (HEK) were cultured in a monolayer following instructions for culture of primary cells and received BpV(pic) or vehicle for 48 hrs. Treated cells were trypsinized and stained for CD44-APC (BD Pharmingen, San Jose, CA, USA) and Aldefluor kit (StemCell Technologies, Durham, NC, USA) according to the manufacturer's instructions to detected aldehyde dehydrogenase (ALDH) enzymatic activity. […]
# hair follicle stem cells = conditions: treated mice, FACS (FIGS. 3B-3C)
# Description: as §2
# [3] = tested on: Male and female Balb/cJ mice; assay: Hair regrowth on shaved dorsal skin of mice after topical treatment; assay type: in vivo
# Description: Hair regrowth was monitored daily. […] The hair length was measured by digital pachymeter.
# Drug administration bpV(pic) (Sigma Aldrich, San Louis, MO, USA) was reconstituted in sterile Milli-Q water. bpV(pic) was also used to prepare a 10 μM bpV(pic) gel using 2% carmellose gel base (vehicle). bpV(pic) or vehicle gel was topically applied to the skin twice a day.
# The dorsal skin of male and female mice was shaved and treated with vehicle or bpV (pic) topically, twice a day for 21 days (FIG. 1A).
# The dorsal skin of male and female mice was shaved and treated with vehicle or SF1670 (N-(9,10-Dioxo-9,10-dihydro-phenanthren-2-yl)-2,2-dimethylpropionamide, N-(9,10-dihydro-9,10-dioxo-2-phenanthrenyl)-2,2-dimethyl-propanamide) topically, twice a day for 5 weeks. Hairs were collected once a week and measured using a millimeter (mm) as the measurement unit.
Compound,hair follicle cycle phase by morphology (hair follicles),proliferative cells in the hair follicle (follicular) versus vehicle control [1],proliferative cells in the interfollicular epidermis versus vehicle control [1],stem cell number in human stem cells compared to vehicle control [2],number of hair follicle stem cells compared to vehicle control (hair follicle stem cells),"hair regrowth (hair length) in comparison to the vehicle control ([3]; 10 μM gel topically twice a day for 21 days, shaved dorsal skin, all subjects (FIG. 1B))","hair regrowth (hair length) compared to vehicle control ([3]; topically twice a day for 5 weeks, hairs measured once a week (FIG. 4))"
"O=C([O-])c1ccccn1.[K+].[K+].[O-2].[O-][O-].[O-][O-].[V+5] [bpV(pic), dipotassium bisperoxo(pyridine-2-carboxyl)oxovanadate]",anagen phase,increased,increased,confirmed,increased,induced hair regrowth,–
"CC(C)(C)C(=O)Nc1ccc2c(c1)C(=O)C(=O)c1ccccc1-2 [SF1670, N-(9,10-Dioxo-9,10-dihydro-phenanthren-2-yl)-2,2-dimethylpropionamide]",–,–,–,–,–,–,faster hair regrowth
